Entries after “also recorded” stand apart in the source; their conditions may differ. Peptide text beside a SMILES is read from it. * marks the point of attachment. Cbz = O=C(OCc1ccccc1)*; CH2F = FC*
Assays:
dividing SH-SY5Y cells = assay: DNA damage signaling and AIF activation; assay type: cell-based, human; conditions: up to 8 hr, compared to controls; data not shown
Text: A cell morphology-based assay was used to compare cells treated with ionomycin vs. the apoptosis-inducer camptothecin (CPT) (FIG. 4B, C). […] Importantly, cell death depended on NAD+ depletion and was calpain-independent; and ionomycin or glutamate induced little/no DNA damage signaling and AIF activation in dividing SH-SY5Y cells as compared to controls for up to 8 hr, although DNA damage did occur at 24 hr (data not shown).

[1] = tested on: dividing ATR+/+ and ATRflox/- HCT116 cells; assay: morphologic analysis (phase-contrast microscopy) of form of cell death; assay type: cell-based, human
Text: (§1) FIG. 4 reports data supporting the finding that necrosis is the form of cell death induced by Ca^2+ overload in dividing cells. (A) ATR^+/+ and ATR^flox/− cells were pre-treated with apoptosis inhibitor Z-VAD-FMK and then with ionomycin for cytotoxicity assay. […] As a control, camptothecin (CPT), a DNA double-strand break and typical apoptosis inducer, caused characteristic cell shrinkage and apoptotic bodies. […] (E) A549 cells were transfected with control, ATR, or ATM siRNAs for 72 hrs, then treated with ionomycin for 4 hrs. Treated cells were either analyzed by Western blot or trypan blue staining for determination of cell death. (*, p≤0.01).
(§2) Cultured dividing ATR^+/+ and ATR^flox/− HCT116 cells were pre-treated with apoptosis inhibitor Z-VAD-FMK and then with ionomycin, followed by trypan blue cytotoxicity assay (FIG. 4A). […] As a control, CPT, a DNA double-strand break and typical apoptosis inducer, caused characteristic cell shrinkage and apoptotic bodies. […] FIG. 4E: Dividing A549 cells were transfected with control, ATR, or ATM siRNAs for 72 hrs, then treated with ionomycin for 4 hrs. Treated cells were either analyzed by Western blot or subjected to trypan blue staining for determination of cell death. (*, p≤0.01).

caspases = assay: Western blot of activated (cleaved) caspases; assay type: cell-based, human
Text: as §1, §2

[2] = tested on: HCT116 and A549 cells and primary fibroblasts; assay: flow cytometric analysis of necrotic and apoptotic cells; assay type: cell-based, human; conditions: data not shown
PARP = assay: Western blot analysis of poly(ADP-ribose) (PAR) formation; assay type: cell-based, human; conditions: dividing A549 cells; ionomycin 10 uM
ATR binding to PARP1 = assay: ATR co-immunoprecipitation and Western blot for PARP1 binding; assay type: cell-based, human; conditions: dividing A549 cells; ionomycin-treated vs control
Procedure: (B) Dividing ATR^+/+ and ATR^flox/− cells were treated with ionomycin for the indicated periods. (C) Dividing A549 cells were treated with ionomycin, followed by subcellular fractionation and co-immunoprecipitation with ATR antibody and Western blot analysis for PARP1 binding.
Since PARP hyperactivation is known to be the major cause of necrosis by Ca^2+ overload, the effects of ATR on PARsylation in dividing cells was investigated. […] ATR+/+ and ATRflox/− cells were treated with ionomycin for the indicated periods. A549 cells were treated with ionomycin, followed by fractionation and ATR co-IP and Western blot analysis for PARP1 binding.

[3] = tested on: Dividing human neural SH-SY5Y cells; assay: LDH cytotoxicity assay, Ca2+ overload in dividing cells; assay type: cell-based; conditions: glutamate 100 uM, QA 1.0 mM or ionomycin 10 uM, VE-822 80 nM, 2 hrs
Procedure: (§3) (A) Dividing human neural SH-SY5Y cells cultured in Dulbecco's modified Eagle's medium (DMEM) supplemented with 10% fetal bovine serum were treated with glutamate (100 uM), quinolinic acid (QA, 1.0 mM) or ionomycin (10 uM) in the presence and absence of ATR inhibitor VE-822 (ATRi, 80 nM) for 2 hours before cell death was measured using LDH cytotoxicity assay (LDH toxicity kit, Promega) following the vendor's procedures. (B)-(C) human ATR^+/+ and ATR^flox/− HCT116 cells and primary fibroblasts transfected with ATR siRNAs for 48 hrs were treated with ionomycin (10 uM) for the indicated periods before cell death was measured using standard trypan blue cytotoxicity assay. […] (E) Terminally differentiated non-dividing SH-SY5Y cells were treated with glutamate (100 uM), QA (1.0 mM) and ionomycin (1.0 uM)±VE-822 before cell death was measured using cytotoxicity assay. […] (G) Live cells (rounded morphology-white arrowheads) were counted in 5 fields per well. […]
(§4) Dividing human neural SH-SY5Y cells were treated with glutamate (100 uM), quinolinic acid (QA) (1.0 mM) or ionomycin (10 uM)±ATR inhibitor VE-822 (ATRi) for 2 hrs before cell death was measured using LDH cytotoxicity assay. Human ATR^+/+ and ATR^flox/− HCT116 cells and primary fibroblasts±ATR siRNAs were treated with ionomycin (10 uM) for the indicated periods before cell death was measured using trypan blue cytotoxicity assay. […]

myoblastic cells H9C2 = assay: hypoxia/reperfusion assay; assay type: cell-based, human; conditions: dividing myoblastic H9C2 cells ± VE-822; hypoxia/reperfusion incubator
[4] = tested on: Terminally differentiated non-dividing SH-SY5Y cells; assay: cytotoxicity assay, Ca2+ overload in non-dividing cells; assay type: cell-based, human; conditions: glutamate 100 uM, QA 1.0 mM, ionomycin 1.0 uM ± VE-822
Procedure: as §3, §4

Primary cortical neurons = assay: NMDA excitotoxicity, live cell count; assay type: cell-based, mouse; conditions: 1 h pretreatment, then 10 uM NMDA for 8 h; p≤0.01
C57BL/6 mice = assay: middle cerebral artery occlusion (MCAO) stroke model; assay type: in vivo, mouse
Procedure: Adult mice injected i.p. with vehicle (A) over 3 d after a 30 min unilateral MCAO had larger infarcts (identified by GFAP+ astrocyte borders and more leukocyte (CD45) infiltration) in the brain at 7 d, than with ATR inhibitor (ATRi) VE-822 (B). (C) Quantification of infarct size as % of the contralateral side. Data are mean+SEM. N=4, 6, *p<0.05. […] (E) The number of neurons identified by the area of NeuN staining in the infarct was increased by VE-822 treatment. (F) With vehicle the striatum was essentially devoid of neurons. (G) In VE-822 treated mice rescued neurons often appeared around blood vessels (identified by αSMA). (H) Grid walk analysis of VE-822-treated and mock-treated MCAO mice.
(A) VE-822-treated mice had fewer CD45+ infiltrating leukocytes in the infarct at 7 d after MCAO, as shown by area measurements. N=4, 6, **p<0.01. (B) Only in ATR inhibitor-treated mice, a sub-set of CD45+ cells were double-labeled with TUNEL (white arrows), which identifies DNA breaks in dying cells. (C) These cells included CD68+ microglia/macrophages as shown by split cells in an adjacent section (yellow arrows). Note the perivascular CD68+ cell at the wall of a blood vessel (BV, pink arrow). (D) Cleaved caspase-3 was present in CD45+ and CD68+ cells ([…] confocal slice). (E) The number of TUNEL+ nuclei in the cortex and striatum was higher with the ATR inhibitor treatment. (F) Some of the CD45 cells expressed ATR. (G) After MCAO, ATR expression was induced in PDGFRβ+ pericytes in the infarct. Yellow arrows indicate the cells shown by confocal on the right. Bottom confocal: ATR is seen in a CD13+ pericyte around a microvessel. […] Green arrows=healthy pericytes.
Adult male C57BL/6 mice (10-12 weeks old; JAX Stock 000664, Jackson Labs) were anesthetized with Avertin and received a unilateral middle cerebral artery occlusion (MCAO) for 30 min as described (Kang et al., Endogenous CNTF mediates stroke-induced adult CNS neurogenesis in mice, Neurobiology of Disease 49: 68-78 (2013)). Reduced cortical blood flow was confirmed by Laser-Doppler Flowmetry and body temperature maintained during and after the MCAO. Two hours afterwards, ATR inhibitor VE-822 was injected i.p., and again at 24 and 48 h. One day before and at 3 and 7 days after MCAO, the mice were tested for impaired forepaw use in a glass cylinder test while rearing and the number of placement errors during grid walking. At 7 d mice were processed for histology of the brain as described (Kang et al., 2012, and Kang, et al., 2013), using various antibodies for cellular markers. Infarct size was determined by the area of lost cells in GFAP- and NeuN (neurons)-stained sections. Inflammatory cells were detected and identified with various antibodies and their death documented using an apoptosis detection kit and by nuclear staining.

[5] = tested on: Terminally differentiated non-dividing SH-SY5Y cells; assay: MTT cytotoxicity (cell viability) assay; assay type: cell-based, human; conditions: Z-VAD-FMK combined with VE-822; glutamate
Procedure: FIG. 3 depicts results of a cell viability assay (MTT) showing apoptosis is induced by Ca^2+ overload in terminally differentiated non-dividing SH-SY5Y cells but is reduced by ATR inhibition.
Standard MTT cytotoxicity assay was carried out on terminally differentiated non-dividing SH-SY5Y cells treated with combinations of VE-822, Z-VAD-FMK, and glutamate. Cell differentiation: SH-SY5Y were grown to 60-70% confluency. Complete media was then replaced with 1% serum DMEM supplemented with freshly made all-trans retinoic acid dissolved in DMSO to a final in dish concentration of […]. This media was changed every two days following the same composition until day ten. At day ten the media was replaced with 1% serum DMEM with no further supplementation. A washout period of two days was allowed before any experiments were performed.

[6] = tested on: dividing ATR+/+ and ATRflox/- HCT116 cells; assay: trypan blue cytotoxicity assay with apoptosis inhibitor pretreatment; assay type: cell-based, human; conditions: pretreatment with Z-VAD-FMK, then ionomycin
Text: as §1, §2

N[C@@H](CCC(=O)O)C(=O)O [glutamate]
DNA damage signaling and AIF activation (dividing SH-SY5Y cells): little/no

C[C@H](CCC(=O)O)C[C@H](C)C[C@H](C)C(=O)/C=C(\O)[C@H](C)C[C@H](C)C/C=C/[C@@H](C)[C@@H](O)[C@@H](C)[C@@H](O)C[C@@H]1CC[C@@](C)([C@H]2CC[C@@](C)([C@@H](C)O)O2)O1 [ionomycin]
form of cell death by cell morphology [1]: caused necrosis
caspase activation (Western blot) (caspases): absence of caspase activation
form of cell death by flow cytometry [2]: necrotic cell death
DNA damage signaling and AIF activation (dividing SH-SY5Y cells): little/no
PARP activity as formation of PAR polymers (PARP): increased PARP activity
ATR interaction with PARP1 (co-IP) (ATR binding to PARP1): interacts with PARP1

CC[C@@]1(O)C(=O)OCc2c1cc1n(c2=O)Cc2cc3ccccc3nc2-1 [CPT, camptothecin]
form of cell death by cell morphology [1]: efficiently induced apoptosis
caspase activation (Western blot) (caspases): obvious

CNCc1ccc(-c2cc(-c3nc(-c4ccc(S(=O)(=O)C(C)C)cc4)cnc3N)on2)cc1 [VE-822, 5-(4-(Isopropylsulfonyl)phenyl)-3-(3-(4-((methylamino)methyl)phenyl)isoxazol-5-yl)pyrazine-2-amine]
cell death caused by cellular Ca2+ overload inducers [3]: dramatically increased cell death
cell death (myoblastic cells H9C2): Increased death
cell death (rescue) [4]: rescued
live cells after NMDA excitotoxicity (Primary cortical neurons): rescued from NMDA excitotoxicity
pericyte morphology in the infarct (C57BL/6 mice; 7 d after MCAO, VTN-identified pericytes): morphology consistent with necrosis
number of TUNEL-positive cells in the injury site (C57BL/6 mice; 7 d after MCAO, cortex and striatum, vs vehicle): increased
number of neurons in the injury site (NeuN area) (C57BL/6 mice; 7 d after MCAO, vs vehicle): increased; also recorded: greater
CD45-positive leukocytes in the injury site (C57BL/6 mice; 7 d after MCAO, vs vehicle, p<0.01): fewer
infarct size (C57BL/6 mice; 7 days after 30 min MCAO, i.p. at 2, 24 and 48 h, vs vehicle, p<0.05): smaller infarcts
neurological function, grid-walking (C57BL/6 mice; MCAO mice, i.p. at 2, 24 and 48 h, vs mock-treated): improved neurological function
neurological function, affected paw use in cylinder test (C57BL/6 mice; MCAO mice, i.p. at 2, 24 and 48 h, vs vehicle): improved neurological function
neurological function, affected paw use in cylinder test (C57BL/6 mice; MCAO mice, i.p. at 2, 24 and 48 h, vs vehicle, listed as ATRi): increased to the near normal forelimb use index level

COC(=O)C[C@H](NC(=O)[C@H](C)NC(=O)[C@@H](NC(=O)OCc1ccccc1)C(C)C)C(=O)CF [Z-VAD-FMK] (Cbz-Val-Ala-Asp(OMe)-CH2F)
rescue from death (MTT), combination of apoptosis inhibitor and ATR inhibition [5]: do not have additive effects
cell death (trypan blue) [6]: had no effect on cell death
